The source made the active and inactive calls. The calls are words filed in the database; no cut-off is given here.
Legend:
HepG2 [1] = test: Reduction in cyclin D1/CDK4 protein expression in human HepG2 cells incubated for 2 days by Western blot method; type: functional, cell-based
DNA = test: Stabilization of human telomere promoter G-quadruplex DNA (unknown origin); type: nucleic-acid assay
HepG2 [2] = test: Induction of apoptosis in human HepG2 cells assessed as late apoptotic cells levels at 8 uM incubated for 3 days by Annexin-V-FITC and propidium iodide staining based flow cytometry (reference value: 3.9%); type: functional
HepG2 [3] = test: Induction of apoptosis in human HepG2 cells assessed as necrotic cells levels at 8 uM incubated for 3 days by Annexin-V-FITC and propidium iodide staining based flow cytometry (reference value: 3.8%); type: functional
HepG2 [4] = test: Induction of apoptosis in human HepG2 cells assessed as viable cells levels at 12 uM incubated for 3 days by Annexin-V-FITC and propidium iodide staining based flow cytometry (reference value: 89.3%); type: functional
HepG2 [5] = test: Inhibition of cell proliferation of human HepG2 cells at 0.5 uM incubated for 12 days by long-term cell growth inhibition assay; type: functional, cell-based
HepG2 [6] = test: Reduction in Sp1 protein expression in human HepG2 cells at 8 and 12 uM incubated for 2 days by Western blot method; type: functional, cell-based
HepG2 [7] = test: Induction of cell cycle arrest in human HepG2 cells assessed as accumulation at S phase at 4 uM incubated for 2 days by propidium iodide staining based flow cytometry method (reference value: 24.65%); type: functional
HepG2 [8] = test: Induction of cell cycle arrest in human HepG2 cells assessed as accumulation at S phase at 8 uM incubated for 2 days by propidium iodide staining based flow cytometry method (reference value: 24.65%); type: functional
HepG2 [9] = test: Induction of cell cycle arrest in human HepG2 cells assessed as accumulation at G2/M phase at 4 uM incubated for 2 days by propidium iodide staining based flow cytometry method (reference value: 10.75%); type: functional
HepG2 [10] = test: Induction of apoptosis in human HepG2 cells assessed as early apoptotic cells levels at 8 uM incubated for 3 days by Annexin-V-FITC and propidium iodide staining based flow cytometry (reference value: 2.9%); type: functional
HepG2 [11] = test: Reduction in TERT protein expression in human HepG2 cells at 2 to 12 uM incubated for 2 days by Western blot method; type: functional, cell-based
HepG2 [12] = test: Induction of apoptosis in human HepG2 cells assessed as viable cells levels at 8 uM incubated for 3 days by Annexin-V-FITC and propidium iodide staining based flow cytometry (reference value: 89.3%); type: functional
HepG2 [13] = test: Inhibition of telomeric DNA elongation in human HepG2 cells at 0.5 uM incubated for 17 days by telomere restriction fragment length assay; type: functional, cell-based
HepG2 [14] = test: Induction of apoptosis in human HepG2 cells assessed as necrotic cells levels at 12 uM incubated for 2 days by Annexin-V-FITC and propidium iodide staining based flow cytometry (reference value: 1.4%); type: functional
HepG2 [15] = test: Induction of cell cycle arrest in human HepG2 cells assessed as accumulation at G2/M phase at 8 uM incubated for 2 days by propidium iodide staining based flow cytometry method (reference value: 10.75%); type: functional
HepG2 [16] = test: Effect on TERT gene expression in human HepG2 cells at 2 to 16 uM incubated for 2 days by RT-PCR method; type: functional, cell-based
HepG2 [17] = test: Induction of apoptosis in human HepG2 cells assessed as late apoptotic cells levels at 12 uM incubated for 2 days by Annexin-V-FITC and propidium iodide staining based flow cytometry (reference value: 0.5%); type: functional
HepG2 [18] = test: Induction of apoptosis in human HepG2 cells assessed as late apoptotic cells levels at 8 uM incubated for 2 days by Annexin-V-FITC and propidium iodide staining based flow cytometry (reference value: 0.5%); type: functional
HepG2 [19] = test: Reduction in c-Myc protein expression in human HepG2 cells at 2 to 12 uM incubated for 2 days by Western blot method; type: functional, cell-based
[20] = Stabilization of c-myc promoter G-quadruplex DNA (unknown origin)
HepG2 [21] = test: Induction of apoptosis in human HepG2 cells assessed as viable cells levels at 8 uM incubated for 2 days by Annexin-V-FITC and propidium iodide staining based flow cytometry (reference value: 97.9%); type: functional
HepG2 [22] = test: Induction of apoptosis in human HepG2 cells assessed as necrotic cells levels at 12 uM incubated for 3 days by Annexin-V-FITC and propidium iodide staining based flow cytometry (reference value: 3.8%); type: functional
HepG2 [23] = test: Reduction in cyclin B1/CDK1 protein expression in human HepG2 cells incubated for 2 days by Western blot method; type: functional, cell-based
HeLa = test: Cytotoxicity against human HeLa cells assessed as reduction in cell viability incubated for 72 hrs by MTT assay; type: functional, cell-based
HepG2 [24] = test: Induction of apoptosis in human HepG2 cells assessed as early apoptotic cells levels at 8 uM incubated for 2 days by Annexin-V-FITC and propidium iodide staining based flow cytometry (reference value: 0.3%); type: functional
HepG2 [25] = test: Induction of apoptosis in human HepG2 cells assessed as early apoptotic cells levels at 12 uM incubated for 2 days by Annexin-V-FITC and propidium iodide staining based flow cytometry (reference value: 0.3%); type: functional
HepG2 [26] = test: Increase in p53 protein expression in human HepG2 cells at 8 and 12 uM incubated for 2 days by Western blot method; type: functional, cell-based
MCF7 = test: Cytotoxicity against human MCF7 cells assessed as reduction in cell viability incubated for 72 hrs by MTT assay; type: functional, cell-based; settings: MCF7, 72 h
HepG2 [27] = test: Induction of apoptosis in human HepG2 cells assessed as late apoptotic cells levels at 12 uM incubated for 3 days by Annexin-V-FITC and propidium iodide staining based flow cytometry (reference value: 3.9%); type: functional
HepG2 [28] = test: Reduction in c-Myc gene expression in human HepG2 cells at 2 to 16 uM incubated for 2 days by RT-PCR method; type: functional, cell-based
HepG2 [29] = test: Induction of cell cycle arrest in human HepG2 cells assessed as accumulation at G0/G1 phase at 8 uM incubated for 2 days by propidium iodide staining based flow cytometry method (reference value: 64.6%); type: functional
HepG2 [30] = test: Cytotoxicity against human HepG2 cells assessed as reduction in cell viability incubated for 72 hrs by MTT assay; type: functional, cell-based; settings: HepG2, 72 h
HepG2 [31] = test: Induction of apoptosis in human HepG2 cells by Annexin-V-FITC and propidium iodide staining based flow cytometry; type: functional, cell-based
HepG2 [32] = test: Induction of apoptosis in human HepG2 cells assessed as necrotic cells levels at 8 uM incubated for 2 days by Annexin-V-FITC and propidium iodide staining based flow cytometry (reference value: 1.4%); type: functional
HepG2 [33] = test: Induction of apoptosis in human HepG2 cells assessed as early apoptotic cells levels at 12 uM incubated for 3 days by Annexin-V-FITC and propidium iodide staining based flow cytometry (reference value: 2.9%); type: functional
HepG2 [34] = test: Induction of apoptosis in human HepG2 cells assessed as viable cells levels at 12 uM incubated for 2 days by Annexin-V-FITC and propidium iodide staining based flow cytometry (reference value: 97.9%); type: functional
HepG2 [35] = test: Induction of cell cycle arrest in human HepG2 cells assessed as accumulation at G0/G1 phase at 4 uM incubated for 2 days by propidium iodide staining based flow cytometry method (reference value: 64.6%); type: functional
HepG2 [36] = test: Induction of cell cycle arrest in human HepG2 cells assessed as accumulation at G2/M phase at 4 uM incubated for 2 days by propidium iodide staining based flow cytometry method (reference value: 21.39%); type: functional
HepG2 [37] = test: Induction of cell cycle arrest in human HepG2 cells assessed as accumulation at G0/G1 phase at 8 uM incubated for 2 days by propidium iodide staining based flow cytometry method (reference value: 51.56%); type: functional
HepG2 [38] = test: Induction of cell cycle arrest in human HepG2 cells assessed as accumulation at G2/M phase at 8 uM incubated for 2 days by propidium iodide staining based flow cytometry method (reference value: 21.39%); type: functional
HepG2 [39] = test: Induction of cell cycle arrest in human HepG2 cells assessed as reduction in accumulation at G2/M phase incubated for 2 days by propidium iodide staining based flow cytometry method; type: functional
HepG2 [40] = test: Reduction in TERT protein expression in human HepG2 cells at 0.5 to 20 uM incubated for 2 days by Western blot method; type: functional, cell-based
HepG2 [41] = test: Induction of cell cycle arrest in human HepG2 cells assessed as accumulation at S phase at 8 uM incubated for 2 days by propidium iodide staining based flow cytometry method (reference value: 27.05%); type: functional
HepG2 [42] = test: Reduction in c-Myc protein expression in human HepG2 cells at 0.5 to 20 uM incubated for 2 days by Western blot method; type: functional, cell-based
HepG2 [43] = test: Induction of cell cycle arrest in human HepG2 cells assessed as accumulation at G0/G1 phase at 4 uM incubated for 2 days by propidium iodide staining based flow cytometry method (reference value: 51.56%); type: functional
HepG2 [44] = test: Induction of cell cycle arrest in human HepG2 cells assessed as reduction in accumulation at S phase incubated for 2 days by propidium iodide staining based flow cytometry method; type: functional
HepG2 [45] = test: Induction of cell cycle arrest in human HepG2 cells assessed as increase in accumulation at G0/G1 phase incubated for 2 days by propidium iodide staining based flow cytometry method; type: functional
HepG2 [46] = test: Induction of cell cycle arrest in human HepG2 cells assessed as accumulation at S phase at 4 uM incubated for 2 days by propidium iodide staining based flow cytometry method (reference value: 27.05%); type: functional

O=C(CCN1CCCC1)Nc1cccc(NC(=O)c2ccc3ccc4ccc(C(=O)Nc5cccc(NC(=O)CCN6CCCC6)n5)nc4c3n2)n1
inhibition (HepG2 [1]): Dose-dependent effect | Activity (DNA): Active | Activity (HepG2 [2]): 17.4% | Activity (HepG2 [3]): 9.3% | Activity (HepG2 [4]): 31.6% | inhibition (HepG2 [5]): Active | inhibition (HepG2 [6]): Dose-dependent effect | Activity (HepG2 [7]): 26.82% | Activity (HepG2 [8]): 38.57% | Activity (HepG2 [9]): 13.82% | Activity (HepG2 [10]): 39.6% | inhibition (HepG2 [11]): Active | Activity (HepG2 [12]): 33.7% | inhibition (HepG2 [13]): inactive | Activity (HepG2 [14]): 5.2% | Activity (HepG2 [15]): 19.17% | Activity (HepG2 [16]): inactive | Activity (HepG2 [17]): 8.2% | Activity (HepG2 [18]): 7.5% | inhibition (HepG2 [19]): Active | Activity [20]: Active | Activity (HepG2 [21]): 84.2% | Activity (HepG2 [22]): 10.2% | inhibition (HepG2 [23]): Dose-dependent effect | IC50 (HeLa): 830 nM | Activity (HepG2 [24]): 3.3% | Activity (HepG2 [25]): 4.9% | Activity (HepG2 [26]): Active | IC50 (MCF7): 1570 nM | Activity (HepG2 [27]): 18.7% | inhibition (HepG2 [28]): Active | Activity (HepG2 [29]): 42.26% | IC50 (HepG2 [30]): 1260 nM | Activity (HepG2 [31]): Dose-dependent effect | Activity (HepG2 [32]): 5% | Activity (HepG2 [33]): 39.5% | Activity (HepG2 [34]): 81.7% | Activity (HepG2 [35]): 59.87%

O=C(Nc1ccc(OCCN2CCCC2)cc1)c1ccc2ccc3ccc(C(=O)Nc4ccc(OCCN5CCCC5)cc4)nc3c2n1
inhibition (HepG2 [1]): Dose-dependent effect | Activity (DNA): Active | Activity (HepG2 [2]): 20% | Activity (HepG2 [36]): 18.55% | Activity (HepG2 [3]): 5.2% | Activity (HepG2 [4]): 14.4% | inhibition (HepG2 [5]): Active | inhibition (HepG2 [6]): Dose-dependent effect | Activity (HepG2 [10]): 46.6% | Activity (HepG2 [12]): 28.2% | inhibition (HepG2 [13]): inactive | Activity (HepG2 [14]): 6% | Activity (HepG2 [16]): inactive | Activity (HepG2 [17]): 9.5% | Activity (HepG2 [37]): 64.97% | Activity (HepG2 [18]): 5.4% | Activity [20]: Active | Activity (HepG2 [21]): 78.4% | Activity (HepG2 [22]): 1.1% | inhibition (HepG2 [23]): Dose-dependent effect | IC50 (HeLa): 2100 nM | Activity (HepG2 [38]): 15.13% | Activity (HepG2 [39]): Dose-dependent effect | Activity (HepG2 [24]): 10.8% | inhibition (HepG2 [40]): Active | Activity (HepG2 [25]): 19.4% | Activity (HepG2 [26]): Active | IC50 (MCF7): 2000 nM | Activity (HepG2 [27]): 10.7% | inhibition (HepG2 [28]): Active | Activity (HepG2 [41]): 19.9% | inhibition (HepG2 [42]): Active | IC50 (HepG2 [30]): 500 nM | Activity (HepG2 [31]): Dose-dependent effect | Activity (HepG2 [32]): 5.3% | Activity (HepG2 [43]): 55.76% | Activity (HepG2 [33]): 73.9% | Activity (HepG2 [34]): 65.1% | Activity (HepG2 [44]): Dose-dependent effect | Activity (HepG2 [45]): Dose-dependent effect | Activity (HepG2 [46]): 25.69%

— ChEMBL document CHEMBL3612056, “Mechanism studies on anti-HepG2 cell proliferation of phenanthroline derivatives as G-quadruplex DNA stabilizers” (Bioorg Med Chem Lett, 2015)
